Here are results for 5 compounds from patent US9517240B2, “Methods and compositions for cancer prevention and treatment” (THE REGENTS OF THE UNIVERSITY OF CALIFORNIA, priority 2006, dated 2016).

Experiment [1] deals with BRCA1^Δ11p53^Δ5&6 mammary glands. The experiment is described as follows: Mammary gland whole mounts and histological sections: ductal branching and alveolar expansion. Type of experiment: in vivo, mouse. How it is done:
(§1) As progesterone is a potent mitogen for BRCA1^Δ11p53^Δ5&6 MECs specifically it was tested whether blocking PR signaling by anti-progesterone will prevent or delay mammary carcinogenesis in BRCA1^Δ11p53^Δ5&6 conditional knockout mice. An anti-progesterone pellet containing 35 mg/60 days constant release mifepristone or placebo pellet was implanted into twelve 3- and two 4-month-old mice. Mice were monitored weekly for tumor formation. The median tumor latency of BRCA1^Δ11p53^Δ5&6 conditional knockout mice was 6.6 months (n=25) with complete penetrance (FIG. 4A). All control mice or placebo pellet treated mice developed palpable tumor by 8.7 or 5.2 months of ages (n=4), respectively. […] The effects of on ductal branching and alveolar expansion were determined using mammary gland whole mounts and histological sections. […] Only 33±7 ducts in an approximate area of 0.012 mm^2 were identified in-treated mice while 678±49 ducts were found in placebo pellet-treated mice. Dramatic inhibition of tumorigenesis was also seen with the implantation of 35 mg time release (60 day) pellets of CDB-2914. […] CDB-2914 shares structural similarity with mifepristone and binds competitively to PR with high affinity.
The mammary gland was removed and flattened on paraffin paper and fixed in Carnoy's fixative (60% of absolute ethanol, 30% CHCl3, 10% HOAc) for 3 hr. It was subsequently hydrated through a series of solutions with decreasing concentrations of ethanol, and stained in carmine solution (1 g carmine, 2.5 g aluminum potassium sulfate/500 ml of water) overnight. The gland was dehydrated through a series of solutions with increasing ethanol concentrations, 50-100%, washed in xylene twice, and mounted on a slide.

Experiment [2] relates to BRCA1^Δ11p53^Δ5&6 conditional knockout mice (mammary tumors). The experiment is described as follows: Pellet implantation and weekly monitoring for mammary tumor formation in BRCA1/p53 deficient mice. Type of experiment: in vivo, mouse. As to conditions: for mammary tumorigenesis / tumor formation (in words): 35 mg/60 day constant release pellet. As for the experimental part:
as §1
Nulliparous mature BRCA1^Δ11/p53^Δ5&6 female mice, age 14-20 weeks, were anesthetized and pellets containing either 35 mg/60-day constant release of mifepristone (M8046, Sigma, St. Louis, Mo.) or placebo pellets (Innovative Research of America, Sarasota, Fla.) were implanted in the lateral side of the neck. Mice were monitored weekly for mammary tumors.
This Example describes the early administration of Progesterone Receptor antagonists to mice with a BRCA1 mutation to prevent or delay the development of tumors.
An effective development window for prevention treatment has also been shown for RU-486 (data not shown). I would appear that the time window for treatment is important.

Experiment [3] has the same test system. Described as above. Type of experiment: in vivo, mouse. As to conditions: 5 mg/60 days constant release pellet.
In a further experiment the target is T1, PR (Homo sapiens, UniProt P06401).
T1 sequence (P06401 1-933): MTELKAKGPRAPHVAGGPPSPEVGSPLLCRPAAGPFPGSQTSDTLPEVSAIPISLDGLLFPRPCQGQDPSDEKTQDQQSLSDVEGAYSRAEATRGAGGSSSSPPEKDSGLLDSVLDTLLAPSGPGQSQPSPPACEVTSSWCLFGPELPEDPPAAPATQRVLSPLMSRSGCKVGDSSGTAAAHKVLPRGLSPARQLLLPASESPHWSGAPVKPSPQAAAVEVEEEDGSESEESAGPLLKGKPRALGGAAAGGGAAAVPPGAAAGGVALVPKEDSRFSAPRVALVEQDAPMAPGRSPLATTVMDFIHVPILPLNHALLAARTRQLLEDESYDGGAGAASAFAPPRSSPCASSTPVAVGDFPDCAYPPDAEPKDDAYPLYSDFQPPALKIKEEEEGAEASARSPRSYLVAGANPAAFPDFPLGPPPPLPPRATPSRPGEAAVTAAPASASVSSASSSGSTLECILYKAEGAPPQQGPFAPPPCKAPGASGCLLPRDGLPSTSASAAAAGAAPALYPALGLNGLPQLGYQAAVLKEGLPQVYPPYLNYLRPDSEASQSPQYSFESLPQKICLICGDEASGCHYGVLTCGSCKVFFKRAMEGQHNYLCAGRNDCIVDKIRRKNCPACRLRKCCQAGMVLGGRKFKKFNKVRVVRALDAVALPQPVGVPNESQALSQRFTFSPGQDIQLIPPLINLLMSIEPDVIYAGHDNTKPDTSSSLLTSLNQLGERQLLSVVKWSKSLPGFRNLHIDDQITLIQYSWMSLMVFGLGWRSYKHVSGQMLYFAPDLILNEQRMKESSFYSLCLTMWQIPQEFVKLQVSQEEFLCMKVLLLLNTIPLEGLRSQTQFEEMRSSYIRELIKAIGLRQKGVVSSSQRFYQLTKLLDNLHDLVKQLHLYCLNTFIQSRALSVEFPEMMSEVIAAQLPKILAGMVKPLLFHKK
Conditions: cited from earlier work.

Experiment [4] relates to PR-A. The experiment can be described thus: Inhibition of proteasome degradation: PR-A and ERα levels in T47D cells with siLuc or siBRCA1 (western blotting). Type of experiment: cell-based, human. As for the experimental part:
To further test whether BRCA1 specifically affects PR stability, adenoviral siRNA-mediated knockdown of BRCA1 was introduced to T47D cells. […] In the absence of a ligand, PR-A was very stable and no significant differences were detected between siLuc and siBRCA1 knockdown cells (FIG. 3A, lanes 5, 6). The amount of PR-B was analyzed by immunoprecipitation followed by western blot (FIG. 8). Depletion of BRCA1 by adenoviral siRNA led to PR-A and PR-B accumulation.
(§2) One day after plating, proliferating sub-confluent MECs or T47D cells were treated with 10 μM MG132 (BioMol Research Laboratories, Plymouth Meeting, Pa.) for 4 hr. Vehicle DMSO was added to the medium of untreated control cells. For the half-life study, 100 μg/ml of cyclohexamide (Sigma) was used and cells were harvested 0-6 hours after the addition of cyclohexamide. Cells were washed in PBS and protein lysates were prepared as described above.
In general terms: Immunoblotting shows a protein as a band on a membrane.

In experiment [5] the test system is PR-A. The experiment can be described thus: Inhibition of proteasome degradation: PR protein level in mouse MECs (western blotting). As to conditions: 10 μM MG132 for 4 hr. Type of experiment: cell-based.
Source text: (§3) MEC cultures from BRCA1^Δ11p53^Δ5&6 and p53^Δ5&6 mammary glands of two-month-old mice when MECs are histologically normal were created. The amount of PR protein, determined by western blotting, was 3-fold higher in BRCA1^Δ11p53^Δ5&6 than in p53^Δ5&6 MECs (FIG. 2D, lanes 1, 3). To further establish that PR protein stability is modulated by a proteasome pathway, MECs were exposing to MG132. PR-A was stabilized in p53^Δ5&6 but not in BRCA1^Δ11p53^Δ5&6 MECs (FIG. 2D, lanes 2, 4).
as §2

Experiment [6] addresses T2, PR-A (Mus musculus, UniProt Q00175).
T2 construct: endogenous in cells; host or cells: primary mouse mammary epithelial cells (MECs) from p53 and BRCA1/p53 conditional knockout mammary glands
T2 sequence (Q00175 1-761 isoform Q00175-2): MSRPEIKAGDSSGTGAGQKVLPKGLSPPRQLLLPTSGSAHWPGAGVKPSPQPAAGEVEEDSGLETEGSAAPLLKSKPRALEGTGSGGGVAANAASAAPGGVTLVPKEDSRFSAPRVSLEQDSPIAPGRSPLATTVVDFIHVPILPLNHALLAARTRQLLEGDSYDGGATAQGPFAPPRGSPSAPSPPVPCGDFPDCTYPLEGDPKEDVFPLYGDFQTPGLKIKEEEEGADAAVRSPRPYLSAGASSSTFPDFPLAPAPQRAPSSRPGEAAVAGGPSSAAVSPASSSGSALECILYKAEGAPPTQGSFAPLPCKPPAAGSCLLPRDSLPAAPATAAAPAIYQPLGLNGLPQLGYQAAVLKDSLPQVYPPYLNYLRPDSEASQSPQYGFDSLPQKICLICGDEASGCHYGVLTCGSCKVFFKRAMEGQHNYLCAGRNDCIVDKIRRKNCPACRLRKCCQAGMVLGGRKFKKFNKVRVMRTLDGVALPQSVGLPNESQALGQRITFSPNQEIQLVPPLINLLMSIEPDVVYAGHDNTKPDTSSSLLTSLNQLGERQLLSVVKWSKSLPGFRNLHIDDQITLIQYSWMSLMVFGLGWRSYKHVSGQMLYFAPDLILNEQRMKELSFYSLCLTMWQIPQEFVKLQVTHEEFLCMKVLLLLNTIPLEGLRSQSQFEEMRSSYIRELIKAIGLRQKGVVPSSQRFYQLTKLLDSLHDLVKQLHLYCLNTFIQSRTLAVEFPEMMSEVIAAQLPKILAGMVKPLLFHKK
The experiment is described as follows: Determination of PR half-life in MECs with cyclohexamide and R5020. Type of experiment: cell-based. Conditions: 10 nM R5020, 100 μg/ml cyclohexamide.
Source text: as §3, §2

The subject of experiment [7] is BRCA1^Δ11p53^Δ5&6 mammary glands. The experiment can be described thus: Immunostaining for cleaved caspase 3 in treated mammary glands. Type of experiment: in vivo, mouse. As to conditions: 3 wk or 5 wk post pellet implantation.
Experiment [8] deals with mammary epithelial cells (MECs). The experiment is described as follows: Hormone-induced proliferation of mammary epithelial cells in ovariectomized mice (BrdU incorporation). Type of experiment: in vivo, mouse. As to conditions: 1 mg progesterone daily for 3 days. As for the experimental part: MEC proliferation peaks at the estrous phase when progesterone level is highly elevated. To assess the contribution of steroid hormones to MECs proliferation an ovariectomy was performed to deplete circulating estrogen and progesterone. Since PR is one of the downstream target genes of ER, progesterone activity was targeted. Two weeks after ovariectomy mice were treated with progesterone daily for 3 days followed by BrdU pulse labeling. In control vehicle treated mice, no BrdU-positive MECs were found in ovariectomized wt, and p53^Δ5&6 gland, but ducts containing one or two BrdU-positive cells were detected in BRCA1^Δ11p53^Δ5&6 mammary glands (FIG. 2A). Elevated proliferation seen under ovarian hormone depletion is related to the ligand-independent activation of PR in BRCA1-deficient cells. Importantly, a higher number of BrdU-positive MECs was found in BRCA1^Δ11p53^Δ5&6 mammary glands upon exposure to progesterone; ducts containing up to 6 BrdU-positive cells were identified (FIG. 2A).
Two weeks before steroid hormone treatment animals were bilaterally ovariectomized Mammary glands were stimulated to proliferate with daily subcutaneous injections of either 1 μg of estradiol (E2758, Sigma, St. Louis, Mo.) or 1 mg of progesterone (P8783, Sigma, St. Louis, Mo.) for 3 days. Untreated mice were used as controls.
Background: Incorporation of labelled thymidine or its analogues reports DNA synthesis.

Entries after “also recorded” stand apart in the source; their conditions may differ. Peptide text beside a SMILES is read from it. * marks the point of attachment. Cbz = O=C(OCc1ccccc1)*

With `CC(=O)O[C@]1(C(C)=O)CC[C@H]2[C@@H]3CCC4=CC(=O)CCC4=C3[C@@H](c3ccc(N(C)C)cc3)C[C@@]21C` [CDB-2914, 17α-acetoxy-11β-(4-N,N-dimethylaminophenyl)-19-norpregna-4,9-diene-3,20-dione], the “ductal branching of the mammary gland” value in experiment [1] (Brca1^f/fp53^f/fCrec mouse, 7.0-month-old, 35 mg/60 day pellet at 14-wk-old) was “inhibits ductal branching”. For the same compound, in experiment [2] (35 mg time release (60 day) pellet, BRCA1/p53 deficient mice, age 14 weeks, n=4), the “inhibition of tumors compared to control implants” value amounted to 100%. Besides, in experiment [2] (BRCA1/p53 deficient mice), the “mammary tumorigenesis / tumor formation (in words)” value is listed as “has a preventative effect; also recorded: inhibits mammary tumorigenesis; also recorded: effective in delaying mammary tumors”. Besides, the “development of palpable tumors” value in experiment [2] (two-month-release pellet implanted before 14 weeks of age, n=4) was “delayed development of palpable tumors”; in experiment [2] (two-month-release pellet placed after 15 wks), “failed to do so”. In addition, in experiment [3], the “efficacy in tumor prevention (in words)” value is recorded as “failed to show any efficacy”. The other receptor properties result at PR was “anti-glucorcorticoid and anti-androgen properties”. Further, the “binding to PR” value at PR (competitive) is recorded as “high affinity”.

In the case of `CC(C)C[C@@H](C=O)NC(=O)[C@H](CC(C)C)NC(=O)[C@H](CC(C)C)NC(=O)OCc1ccccc1` [MG132] (Cbz-Leu-Leu-Leu-aldehyde), the “PR-A density (western blot)” value is recorded as 3.8 in the experiment on PR-A [4] (control siLuc infected cells, with R5020, 1.0 without MG132) and 3.6 in the experiment on PR-A [4] (siBRCA1 infected cells, with R5020, 3.2 without MG132). For the same compound, in the experiment with PR-A [4] (siLuc or siBRCA1 knockdown cells), the ERα stabilization result was “stabilized to a similar extent”. In addition, the PR-A stabilization result was “not” in the experiment with PR-A [5] (BRCA1^Δ11p53^Δ5&6 MECs) and “stabilized” with PR-A [5] (p53^Δ5&6 MECs).

For the compound `CCC(=O)[C@@]1(C)CC[C@H]2[C@@H]3CCC4=CC(=O)CCC4=C3CC[C@@]21C` [R5020], on PR-A [6] (BRCA1^Δ11p53^Δ5&6 MECs), the “PR-A present at 6 hr post R5020 treatment” value was 90%. The “half-life of PR-A” value at PR-A [6] (p53^Δ5&6 MECs) came to 2.8 h.

For `CC#C[C@]1(O)CC[C@H]2[C@@H]3CCC4=CC(=O)CCC4=C3[C@@H](c3ccc(N(C)C)cc3)C[C@@]21C` [mifepristone], the “side branches of mammary glands” value in experiment [1] (five weeks of treatment, 35 mg/60-day pellet) is “substantial reduction”. Besides, the “ducts in an approximate area of 0.012 mm^2” value in experiment [1] (five weeks of treatment, 35 mg/60-day pellet, placebo 678±49) was 33±7 ducts. Further, the “mammary tumorigenesis / tumor formation (in words)” value in experiment [2] (BRCA1/p53 deficient mice) is recorded as “effective prevention of tumor formation; also recorded: prevents tumorigenesis; also recorded: inhibits mammary tumorigenesis”. Moreover, the “palpable tumors at 12 months of age” value in experiment [2] (35 mg/60 days constant release pellet implanted at 3-4 months, n=14, BRCA1^Δ11p53^Δ5&6 mice) was “no palpable tumors were detected”. Also, the “apoptotic cells (cleaved caspase 3)” value in experiment [7] is recorded as “few apoptotic cells”.

For `CC(=O)[C@H]1CC[C@H]2[C@@H]3CCC4=CC(=O)CC[C@]4(C)[C@H]3CC[C@]12C` [progesterone], in experiment [8] (BRCA1^Δ11p53^Δ5&6 mammary glands), the “BrdU-positive cells per duct” value is “up to 6”. Also, in experiment [8] (wt or p53^Δ5&6 mammary gland), the “BrdU-positive cells in the majority of MECs” value is reported as “did not contain BrdU-positive cells”.
